# Key:
# [1] = target: T1, Recombinant IKKα (Homo sapiens, UniProt O15111); experiment: DELFIA IKKα kinase assay (apparent Ki, Cheng-Prusoff); type: biochemical
# T1 construct: purchased Millipore, Dundee, UK
# T1 sequence (O15111 1-745): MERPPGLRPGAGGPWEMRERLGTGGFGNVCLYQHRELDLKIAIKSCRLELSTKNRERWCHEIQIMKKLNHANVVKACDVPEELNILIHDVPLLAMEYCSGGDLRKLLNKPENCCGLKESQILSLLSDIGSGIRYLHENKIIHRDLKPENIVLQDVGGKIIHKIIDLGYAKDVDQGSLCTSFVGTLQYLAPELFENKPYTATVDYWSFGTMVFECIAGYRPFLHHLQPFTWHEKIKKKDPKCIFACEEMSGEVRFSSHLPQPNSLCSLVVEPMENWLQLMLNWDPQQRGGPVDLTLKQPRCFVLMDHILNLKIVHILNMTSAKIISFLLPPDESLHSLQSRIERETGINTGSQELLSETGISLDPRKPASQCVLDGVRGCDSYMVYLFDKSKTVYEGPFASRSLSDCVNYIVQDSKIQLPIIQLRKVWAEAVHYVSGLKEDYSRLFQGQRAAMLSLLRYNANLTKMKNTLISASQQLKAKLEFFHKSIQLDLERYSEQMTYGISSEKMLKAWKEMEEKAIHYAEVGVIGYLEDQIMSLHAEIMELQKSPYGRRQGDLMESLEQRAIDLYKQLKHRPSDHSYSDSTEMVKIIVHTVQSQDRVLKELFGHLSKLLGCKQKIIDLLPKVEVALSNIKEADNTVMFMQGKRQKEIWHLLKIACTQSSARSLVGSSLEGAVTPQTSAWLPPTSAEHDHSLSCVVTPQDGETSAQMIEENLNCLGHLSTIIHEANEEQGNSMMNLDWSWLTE
# Method in brief: (§1)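 DELFIA time-resolved fluorescence (ex 340/em 615 nm) quantified phosphorylation of a biotinylated IκB-α Ser32 peptide (0.375 μM) by 37 nM recombinant IKKα or IKKβ. Reactions used 40 μM ATP, Tris pH 7.5 buffer with MgCl2, DTT and BSA, 60 min at 30° C. Cheng-Prusoff equation gave apparent Ki.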
# [2] = target: T2, Recombinant IKKβ (Homo sapiens, UniProt O14920); experiment: DELFIA IKKβ kinase assay (apparent Ki, Cheng-Prusoff); type: biochemical
# T2 construct: purchased Millipore, Dundee, UK
# T2 sequence (O14920 1-756): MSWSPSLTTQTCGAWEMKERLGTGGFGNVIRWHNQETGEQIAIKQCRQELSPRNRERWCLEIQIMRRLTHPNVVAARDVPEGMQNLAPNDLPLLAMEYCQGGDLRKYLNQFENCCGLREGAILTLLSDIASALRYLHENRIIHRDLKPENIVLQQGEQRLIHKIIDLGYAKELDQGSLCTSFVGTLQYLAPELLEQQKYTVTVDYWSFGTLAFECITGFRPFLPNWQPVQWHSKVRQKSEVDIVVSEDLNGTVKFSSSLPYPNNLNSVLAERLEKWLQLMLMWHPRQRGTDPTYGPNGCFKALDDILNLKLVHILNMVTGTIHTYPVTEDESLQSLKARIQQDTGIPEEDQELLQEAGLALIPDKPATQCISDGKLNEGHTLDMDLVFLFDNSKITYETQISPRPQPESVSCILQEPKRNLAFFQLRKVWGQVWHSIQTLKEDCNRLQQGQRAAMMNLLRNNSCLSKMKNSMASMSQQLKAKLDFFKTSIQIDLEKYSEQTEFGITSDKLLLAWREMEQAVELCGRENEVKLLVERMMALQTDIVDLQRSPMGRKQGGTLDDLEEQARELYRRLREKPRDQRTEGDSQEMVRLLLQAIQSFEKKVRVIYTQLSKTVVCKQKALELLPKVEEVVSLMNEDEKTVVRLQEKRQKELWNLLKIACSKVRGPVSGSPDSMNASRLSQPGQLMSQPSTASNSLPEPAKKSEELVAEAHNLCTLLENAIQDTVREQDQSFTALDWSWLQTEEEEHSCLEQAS
# Method in brief: as §1
# [3] = DELFIA assay (first line of an example)
# [4] = non-italicised figure: DELFIA assay
Compound,"Ki [1, 3] [nM]","Ki [2, 3] [nM]","Ki [1, 4] [nM]","Ki [2, 4] [nM]"
"COC(=O)Nc1cc(-c2cc(-c3ccc(N)cc3)c3[nH]nc(N)c3c2)ccn1 [Example 325, Methyl (4-(3-amino-7-(4-aminophenyl)-1H-indazol-5-yl)pyridin-2-yl)carbamate]",6,79,–,–
"NC(=O)c1cccc(NC(=O)Nc2cc(-c3ccc4[nH]nc(N)c4c3)ccn2)c1 [Example 55, 3-(3-(4-(3-Amino-1H-indazol-5-yl)pyridin-2-yl)ureido)benzamide]",–,–,21,503
"Nc1n[nH]c2c(-c3ccc(O)cc3)cc(-c3ccnc(NC4COC4)c3)cc12 [Example 324, 4-(3-Amino-5-(2-(oxetan-3-ylamino)pyridin-4-yl)-1H-indazol-7-yl)phenol]",8090,4730,–,–
"CC(=O)Nc1cc(-c2cc(C#CC(C)(C)C)c3[nH]nc(N)c3c2)ccn1 [Example 164, N-(4-(3-Amino-7-(3,3-dimethylbut-1-yn-1-yl)-1H-indazol-5-yl)pyridin-2-yl)acetamide]",–,–,15,350
"COCCNc1cc(-c2ccc3[nH]nc(N)c3c2)ccn1 [Example 25, 5-(2-((2-Methoxyethyl)amino)pyridine-4-yl)-1H-indazol-3-amine]",–,–,221,> 10000
"CCCNC(=O)Nc1cc(-c2ccc3[nH]nc(N)c3c2)ccn1 [Example 37, 1-(4-(3-Amino-1H-indazol-5-yl)pyridin-2-yl)-3-propylurea]",–,–,70,4100
"CC(C)(C)C#Cc1cc(-c2ccnc3[nH]c(CCN4CCOCC4)cc23)cc2c(N)n[nH]c12 [Example 280, 7-(3,3-Dimethylbut-1-yn-1-yl)-5-(2-(2-morpholinoethyl)-1H-pyrrolo[2,3-b]pyridin-4-yl)-1H-indazol-3-amine]",30,360,–,–
"Nc1n[nH]c2ccc(-c3ccnc(NC(=O)Nc4ccccc4)c3)cc12 [Example 50, 1-(4-(3-Amino-1H-indazol-5-yl)pyridin-2-yl)-3-phenylurea]",–,–,12,293
"CC(C)C#Cc1cc(-c2ccnc(N)c2)cc2c(N)n[nH]c12 [Example 134, 5-(2-Aminopyridin-4-yl)-7-(3-methylbut-1-yn-1-yl)-1H-indazol-3-amine]",–,–,3,300
"Nc1n[nH]c2c(C#Cc3ccccc3)cc(-c3ccnc4[nH]c(CCN5CCOCC5)cc34)cc12 [Example 281, 5-(2-(2-Morpholinoethyl)-1H-pyrrolo[2,3-b]pyridin-4-yl)-7-(phenylethynyl)-1H-indazol-3-amine]",47,331,–,–
"COCC(=O)Nc1cc(-c2cc(C#CC(C)(C)C)c3[nH]nc(N)c3c2)ccn1 [Example 175, N-(4-(3-Amino-7-(3,3-dimethylbut-1-yn-1-yl)-1H-indazol-5-yl)pyridin-2-yl)-2-methoxyacetamide]",–,–,24,1110
"CC(C)(C)C#Cc1cc(-c2ccnc(Nc3nnc[nH]3)c2)cc2c(N)n[nH]c12 [Example 319, 5-(2-((4H-1,2,4-Triazol-3-yl)amino)pyridin-4-yl)-7-(3,3-dimethylbut-1-yn-1-yl)-1H-indazol-3-amine]",27,486,–,–
"CC(C)(C)C#Cc1cc(-c2ccnc(NC(=O)C3CCC3)c2)cc2c(N)n[nH]c12 [Example 172, N-(4-(3-Amino-7-(3,3-dimethylbut-1-yn-1-yl)-1H-indazol-5-yl)pyridin-2-yl)cyclobutanecarboxamide]",–,–,89,3330
"Nc1cc(-c2cc(Cl)c3[nH]nc(N)c3c2)ccn1 [Example 1, 5-(2-Aminopyridin-4-yl)-7-chloro-1H-indazol-3-amine]",–,–,55,880
"Nc1n[nH]c2c(C#CC3(O)CCCCC3)cc(-c3ccnc4[nH]ccc34)cc12 [Example 208, 1-((3-Amino-5-(1H-pyrrolo[2,3-b]pyridin-4-yl)-1H-indazol-7-yl)ethynyl)cyclohexan-1-ol]",76,528,–,–
"CNC(=O)Nc1cc(-c2cc(C#CC(C)(C)C)c3[nH]nc(N)c3c2)ccn1 [Example 186, 1-(4-(3-Amino-7-(3,3-dimethylbut-1-yn-1-yl)-1H-indazol-5-yl)pyridin-2-yl)-3-methylurea]",–,–,34,3490
"CC(C)(C)C#Cc1cc(-c2ccnc(Nc3ncco3)c2)cc2c(N)n[nH]c12 [Example 282, N-(4-(3-Amino-7-(3,3-dimethylbut-1-yn-1-yl)-1H-indazol-5-yl)pyridin-2-yl)oxazol-2-amine]",19,594,–,–
"CC(C)(C)C#Cc1cc(-c2ccnc(NCCC(F)(F)F)c2)cc2c(N)n[nH]c12 [Example 283, 7-(3,3-Dimethylbut-1-yn-1-yl)-5-(2-((3,3,3-trifluoropropyl)amino)pyridin-4-yl)-1H-indazol-3-amine]",215,> 10000,–,–
"COC(=O)Nc1cc(-c2cc(C#CCN3CCOCC3)c3[nH]nc(N)c3c2)ccn1 [Example 183, Methyl (4-(3-amino-7-(3-morpholinoprop-1-yn-1-yl)-1H-indazol-5-yl)pyridin-2-yl)carbamate]",–,–,47,721
"CN(C)c1ccc(-c2cc(-c3ccnc(N)c3)cc3c(N)n[nH]c23)cc1 [Example 119, 5-(2-Aminopyridin-4-yl)-7-(4-(dimethylamino)phenyl)-1H-indazol-3-amine]",–,–,84,2510
"Nc1n[nH]c2c(Cl)cc(-c3ccnc4[nH]c(CN5CCOCC5)cc34)cc12 [Example 276, 7-Chloro-5-(2-(morpholinomethyl)-1H-pyrrolo[2,3-b]pyridin-4-yl)-1H-indazol-3-amine]",4,70,–,–
"COC(=O)c1cc2c(-c3ccc4[nH]nc(N)c4c3)ccnc2[nH]1 [Example 231, Methyl 4-(3-amino-1H-indazol-5-yl)-1H-pyrrolo[2,3-b]pyridine-2-carboxylate]",9,419,–,–
"COC(=O)c1ccc(C#Cc2c(-c3ccc4[nH]nc(N)c4c3)ccnc2N)cc1 [Example 80, Methyl 4-((2-amino-4-(3-amino-1H-indazol-5-yl)150yridine-3-yl)ethynyl)benzoate]",–,–,2,15
"Nc1n[nH]c2ccc(-c3ccnc(NC(=O)NCCO)c3)cc12 [Example 41, 1-(4-(3-Amino-1H-indazol-5-yl)pyridin-2-yl)-3-(2-hydroxyethyl)urea]",–,–,21,754
"Nc1n[nH]c2c(C#CCO)cc(-c3ccnc4[nH]ccc34)cc12 [Example 205, 3-(3-Amino-5-(1H-pyrrolo[2,3-b]pyridin-4-yl)-1H-indazol-7-yl)prop-2-yn-1-ol]",366,3100,–,–
"CCCCCCNc1cc(-c2ccc3[nH]nc(N)c3c2)ccn1 [Example 17, 5-(2-(Hexylamino)pyridine-4-yl)-1H-indazol-3-amine]",–,–,114,1340
"Nc1n[nH]c2c(C#CC3CC3)cc(-c3ccnc(NC4COC4)c3)cc12 [Example 284, 7-(Cyclopropylethynyl)-5-(2-(oxetan-3-ylamino)pyridin-4-yl)-1H-indazol-3-amine]",12,386,–,–
"Nc1n[nH]c2c(Br)cc(-c3ncnc4[nH]ccc34)cc12 [Example 11, 7-Bromo-5-(7H-pyrrolo[2,3-d]pyrimidin-4-yl)-1H-indazol-3-amine]",–,–,39,258
"Nc1n[nH]c2ccc(-c3ccnc(NC(=O)NCc4cccnc4)c3)cc12 [Example 48, 1-(4-(3-Amino-1H-indazol-5-yl)pyridin-2-yl)-3-(pyridin-3-ylmethyl)urea]",–,–,76,840
